Reference: patent publication US20220324770A1, “NITRIFICATION INHIBITORS” (The University of Melbourne, priority 2019, published 2022)

Assays:
Terang soil = test: Soil microcosm incubation (nitrification of applied ammonium), Terang soil; details: for Nitrified NH4+—N (%) Day 3 / Nitrified NH4+—N (%) Day 7 / Nitrified NH4+—N (%) Day 14 / Nitrified NH4+—N (%) Day 28: Terang soil pH 6.5, 25° C., L-DMPP 1.5 mol %; for Nitrified NH4+—N (%) Day 3: compounds 10 mol % of applied N, (NH4)2SO4 100 mg N per kg soil; for Nitrified NH4+—N (%) Day 7 / Nitrified NH4+—N (%) Day 14 / Nitrified NH4+—N (%) Day 28: compounds 10 mol %
Procedure: (§1) The soil used in this study was collected from four different locations in Victoria, Australia: (i) a wheat cropping soil from Horsham (36° 45′S, 142° 07′ E), (ii) a rotational cropping soil from Dahlen (36° 37′S, 142° 09′ E), (iii) a vegetable growing soil from Clyde (38° 08′S, 145° 20′ E), and (iv) a pasture soil from Terang (38° 15′S, 142° 52′E). In addition, a sugarcane cropping soil from South Johnstone in northern Queensland (17° 34′S, 145° 57′ E) was also studied. The water content of the soil was calculated before commencing each experiment, from samples that were oven-dried to constant weight. The soil's water-filled pore space (WFPS) was in the range 52%-61%, which is within the recommended 50-70% range for microbial activity due to oxygen and nutrient availability (Fichtner, T., et al., Applied Sciences, 2019, 9, 496).
(§2) Soil microcosm incubations were carried out in 250 ml polypropylene specimen containers (Sarstedt, Germany), containing 18.24 g oven dry-weight equivalent of soil. Microcosms were re-wetted and pre-incubated at the test temperature for seven days to revive soil microbial activity. Following pre-incubation, the remaining volume to reach the desired water-filled pore spaces (WFPS %) was applied as one of the following treatment solutions; (NH4)2SO4(Control), (NH4)2SO4+DMPP, or (NH4)2SO4+one of Compounds 1-23. Each treatment was applied in triplicate per soil type, so that n=3 at each time point.
(§3) Treatment solutions were prepared such that each microcosm received (NH4)2SO4 at a rate of 100 mg N per kg soil, Compounds 1-23 at 10 mol % of applied N, or DMPP at one of 1.5, 3.6 or 10 mol % of applied N, referred to as L-DMPP, M-DMPP or H-DMPP respectively.
(§4) The microcosms were incubated for 0, 3, 7, 14, 21 or 28 days, where day 0 samples were extracted following 1-hour incubation post-treatment. Soil microcosms were aerated and moisture levels were replenished based on weight loss every few days throughout the incubation period.
(§5) At the end of each incubation period, soil microcosms were destructively sampled by treatment with 2M KCl (100 mL). After shaking for 1 hour, soil-KCl solutions were filtered (Whatman 42) before storing the filtrates at −20° C. until the conclusion of the experiment. All KCl extracts were then analysed by Segmented Flow Analysis (San++, Skalar, Breda, The Netherlands) for the concentration of nitrogen from ammonium (NH4^+—N) and nitrogen from NO3 and NO2 (NOx^−—N) after appropriate dilutions. Results are reported as the mean of three replicates, errors reported are standard errors of the mean.
(§6) Nitrification calculations were performed as previously reported (Aulakh, M., et al., Biology and Fertility of Soils 2001, 33, 258-263; Mahmood, T., et al., Soil Research 2017, 55, 715-722) without correction for the initial baseline concentrations of NH4^+—N or NO3^− N in the untreated soil. For each treatment nitrified NH4^+—N (%) was calculated according to eqn. 1:
(§7) where [NH4^+—N]0 is the NH4^+—N concentration (in mg N kg^−1 soil) of the soil on day 0 and [NH4^+—N]t is the NH4^+—N concentration (in mg N kg^−1 soil) of the soil at a given time point t.

Horsham soil = test: Soil microcosm incubation (nitrification of applied ammonium), Horsham soil
Procedure: as §1, §2, §3, §4, §5, §6, §7
(§8) NOx^−—N accumulation rates (mg NOx^−—N/kg soil/day) over the 28-day incubation experiments were calculated for each treatment as in the following (eqn. 2):
(§9) [NOx^−—N]t=0 and [NOx^−—N]t=28 are the combined concentrations of nitrite (NO2) and nitrate (NO3) in the soil (in mg N kg^−1 soil) on day 0 and day 28, respectively.

Dahlen soil = test: Soil microcosm incubation (nitrification of applied ammonium), Dahlen soil; details: for Nitrified NH4+—N (%) Day 3 / Nitrified NH4+—N (%) Day 7 / Nitrified NH4+—N (%) Day 14 / Nitrified NH4+—N (%) Day 21 / Nitrified NH4+—N (%) Day 28: 10 mol %
Procedure: as §1, §2, §3, §4, §5, §6, §7, §8, §9

South Johnstone soil = test: Soil microcosm incubation (nitrification of applied ammonium), South Johnstone soil; details: for Nitrified NH4+—N (%) Day 3 / Nitrified NH4+—N (%) Day 7 / Nitrified NH4+—N (%) Day 14 / Nitrified NH4+—N (%) Day 21 / Nitrified NH4+—N (%) Day 28: 10 mol %; for effectiveness compared to treatment with DMPP (higher NH4+—N, lower NOx−—N) / retaining NH4+—N vs DMPP / retaining NH4+—N and slowing NOx−—N growth vs fertilised control: South Johnstone soil; for effectiveness compared to treatment with DMPP (higher NH4+—N, lower NOx−—N): 25° C.; for Nitrified NH4+—N (%) Day 28 / effectiveness compared to treatment with DMPP (higher NH4+—N, lower NOx−—N) / retaining NH4+—N and slowing NOx−—N growth vs fertilised control: day 28; for retaining NH4+—N vs DMPP / retaining NH4+—N and slowing NOx−—N growth vs fertilised control: 35° C.
Procedure: as §1, §2, §3, §4, §5, §6, §7

[1] = Horsham soil pH 8.8, 25° C., 10 mol %
[2] = Horsham soil pH 8.8, 35° C., 10 mol %
[3] = Table 4, Dahlen soil pH 7.3, 25° C.
[4] = Table 4, Dahlen soil pH 7.3, 35° C.
[5] = South Johnstone soil pH 5.0, 25° C., negative = NH4+—N higher than day 0 (mineralisation)
[6] = South Johnstone soil pH 5.0, 25° C.
[7] = South Johnstone soil pH 5.0, 35° C.
[8] = Table 5, Dahlen soil pH 7.3, 25° C.
[9] = Table 5, Dahlen soil pH 7.3, 35° C.

## CCCCn1cc(C(C)(C)O)nn1 [Compound 4, 1-butyl-4-(α,α-dimethylmethanol)-1H-1,2,3-triazole]
Terang soil
  Nitrified NH4+—N (%) Day 3: 27.0 ± 7.5%
  Nitrified NH4+—N (%) Day 7: 67.3 ± 5.2%
  Nitrified NH4+—N (%) Day 14: 96.4 ± 5.8%
  Nitrified NH4+—N (%) Day 28: 100 ± 5.9%

## CCCCc1cn(CCCC)nn1 [Compound 2, 1,4-butyl-1H-1,2,3-triazole]
Horsham soil; Horsham soil pH 8.8, 25° C., inhibitors 10 mol % of applied N
  Nitrified NH4+—N (%) Day 3: 12.2 ± 8.6%
Horsham soil; [1]
  Nitrified NH4+—N (%) Day 7: 17.9 ± 6.9%
  Nitrified NH4+—N (%) Day 14: 44.5 ± 7.2%
  Nitrified NH4+—N (%) Day 21: 66.6 ± 8.9%
  Nitrified NH4+—N (%) Day 28: 90.4 ± 9.7%
Horsham soil; [2]
  Nitrified NH4+—N (%) Day 3: −3.3 ± 5.9%
  Nitrified NH4+—N (%) Day 7: 8.8 ± 5.5%
  Nitrified NH4+—N (%) Day 14: 40.3 ± 5.4%
  Nitrified NH4+—N (%) Day 21: 53.8 ± 9.4%
  Nitrified NH4+—N (%) Day 28: 71.6 ± 22.9%
Horsham soil; Horsham soil, 25° C., after 28 days
  retaining NH4+ vs uninhibited control treatment: to a lesser extent
Horsham soil; Horsham soil, 28-day incubation
  NOx−—N accumulation: effect of temperature (25° C. vs 35° C.): lower at the elevated temperature
Horsham soil; Horsham soil, 35° C.
  nitrification rates vs uninhibited control treatment: lower nitrification rates than the uninhibited control treatment
Dahlen soil; Dahlen soil, 25° C., after 28 days
  retaining NH4+—N vs uninhibited control treatment and DMPP: performed statistically better
Dahlen soil; Dahlen soil, 35° C., after 28 days
  retaining NH4+ vs both DMPP treatment and control treatment: performed statistically better
Dahlen soil; [3]
  Nitrified NH4+—N (%) Day 3: 7.5 ± 5.2%
  Nitrified NH4+—N (%) Day 7: 21.2 ± 12.2%
  Nitrified NH4+—N (%) Day 14: 20.3 ± 21.6%
  Nitrified NH4+—N (%) Day 21: 32.9 ± 18.4%
  Nitrified NH4+—N (%) Day 28: 37.6 ± 11.0%
Dahlen soil; [4]
  Nitrified NH4+—N (%) Day 3: 1.7 ± 3.3%
  Nitrified NH4+—N (%) Day 7: −1.3 ± 1.9%
  Nitrified NH4+—N (%) Day 14: 2.0 ± 2.4%
  Nitrified NH4+—N (%) Day 21: 29.6 ± 3.6%
  Nitrified NH4+—N (%) Day 28: 22.4 ± 1.5%
Terang soil
  Nitrified NH4+—N (%) Day 3: 27.2 ± 2.0%
  Nitrified NH4+—N (%) Day 7: 64.8 ± 2.3%
  Nitrified NH4+—N (%) Day 14: 95.6 ± 2.8%
  Nitrified NH4+—N (%) Day 28: 100 ± 2.7%

## CCCCc1cn(CC(=O)OCC)nn1 [Compound 3, 4-Butyl-1H-1,2,3-Triazole-1-Acetic Acid Ethyl Ester]
South Johnstone soil; [5]
  Nitrified NH4+—N (%) Day 3: −6.3 ± 0.7%
South Johnstone soil; [6]
  Nitrified NH4+—N (%) Day 7: −7.9 ± 0.9%
  Nitrified NH4+—N (%) Day 14: −12.7 ± 0.7%
  Nitrified NH4+—N (%) Day 21: −13.9 ± 0.9%
  Nitrified NH4+—N (%) Day 28: −12.8 ± 0.8%
South Johnstone soil; [7]
  Nitrified NH4+—N (%) Day 3: −11.8 ± 1.5%
  Nitrified NH4+—N (%) Day 7: −26.2 ± 1.5%
  Nitrified NH4+—N (%) Day 14: −34.8 ± 0.6%
  Nitrified NH4+—N (%) Day 21: −28.3 ± 1.4%
  Nitrified NH4+—N (%) Day 28: −18.6 ± 2.3%
South Johnstone soil
  effectiveness compared to treatment with DMPP (higher NH4+—N, lower NOx−—N): statistically higher effectiveness
  retaining NH4+—N vs DMPP: performed statistically better than DMPP
  retaining NH4+—N and slowing NOx−—N growth vs fertilised control: performed statistically better than the fertilised control
Terang soil
  Nitrified NH4+—N (%) Day 3: 15.6 ± 3.0%
  Nitrified NH4+—N (%) Day 7: 29.4 ± 2.6%
  Nitrified NH4+—N (%) Day 14: 47.8 ± 3.5%
  Nitrified NH4+—N (%) Day 28: 99.9 ± 2.8%
Terang soil; Terang soil, 25° C.
  retaining NH4+—N in the soil compared with the fertilised control: most effective treatments

## C=CCn1cc(CCC)nn1 [Compound 18, 1-(2-propen-1-yl)-4-propyl-1H-1,2,3-triazole]
South Johnstone soil; [5]
  Nitrified NH4+—N (%) Day 3: −6.2 ± 0.9%
South Johnstone soil; [6]
  Nitrified NH4+—N (%) Day 7: −8.5 ± 1.0%
  Nitrified NH4+—N (%) Day 14: −11.0 ± 1.0%
  Nitrified NH4+—N (%) Day 21: −12.1 ± 1.4%
  Nitrified NH4+—N (%) Day 28: −14.9 ± 1.4%
South Johnstone soil; [7]
  Nitrified NH4+—N (%) Day 3: −11.7 ± 2.0%
  Nitrified NH4+—N (%) Day 7: −28.7 ± 1.5%
  Nitrified NH4+—N (%) Day 14: −35.8 ± 1.3%
  Nitrified NH4+—N (%) Day 21: −31.7 ± 1.1%
  Nitrified NH4+—N (%) Day 28: −16.9 ± 1.8%
South Johnstone soil
  effectiveness compared to treatment with DMPP (higher NH4+—N, lower NOx−—N): statistically higher effectiveness
  retaining NH4+—N vs DMPP: performed statistically better than DMPP
  retaining NH4+—N and slowing NOx−—N growth vs fertilised control: performed statistically better than the fertilised control
Dahlen soil; Dahlen soil, 25° C., Table 5 test
  retaining NH4+—N levels by day 28 vs fertilised control (and DMPP): performed statistically better
Dahlen soil; Dahlen soil, 35° C., Table 5 test
  retaining NH4+—N vs (NH4)2SO4-treated control by day 28: remain highly effective
Dahlen soil; Table 5 (further comparative test), Dahlen soil pH 7.3, 25° C.
  Nitrified NH4+—N (%) Day 3: 5.1 ± 5.3%
Dahlen soil; [8]
  Nitrified NH4+—N (%) Day 7: 4.4 ± 1.1%
  Nitrified NH4+—N (%) Day 14: 29.4 ± 2.4%
  Nitrified NH4+—N (%) Day 21: 32.1 ± 2.3%
  Nitrified NH4+—N (%) Day 28: 40.5 ± 1.5%
Dahlen soil; [9]
  Nitrified NH4+—N (%) Day 3: 9.0 ± 4.3%
  Nitrified NH4+—N (%) Day 7: 4.5 ± 4.3%
  Nitrified NH4+—N (%) Day 14: 26.7 ± 3.9%
  Nitrified NH4+—N (%) Day 21: 19.8 ± 5.0%
  Nitrified NH4+—N (%) Day 28: 43.0 ± 4.7%

## CCCCCc1cn(CCCC)nn1 [Compound 1, 1-butyl-4-pentyl-1H-1,2,3-triazole]
Terang soil
  Nitrified NH4+—N (%) Day 3: 13.6 ± 3.1%
  Nitrified NH4+—N (%) Day 7: 43.1 ± 3.7%
  Nitrified NH4+—N (%) Day 14: 85.1 ± 4.5%
  Nitrified NH4+—N (%) Day 28: 100 ± 4.2%
